The values below come from US20220177932A1, “PROCESS AND COMPOSITION FOR CONTROLLING ETHANOL PRODUCTION” (priority 2020, published 2022).

SMILES strings stand for the structures.

In assay [1] the test system is Clostridium authoethanogenum. The assay can be described thus: Syngas fermentation in stirred tank bioreactor, effect of vitamin feed rates on specific ethanol productivity. The format is cell-based. The settings on record: Experiment 5. From the text: A synthesis gas containing CO, CO2 and H2 was continuously introduced into a stirred tank bioreactor containing Clostridium ljungdahlii (Experiments 1-4) or Clostridium authoethanogenum (Experiment 5), along with a liquid medium containing trace metals and salts as described herein. Vitamins were provided using dedicated feed lines. A New Brunswick Bioflow reactor containing the fermentation medium was started with actively growing Clostridium ljungdahlii (Experiments 1-5) or with Clostridium authoethanogenum (Experiment 6). The rate of agitation of the reactor was set to 800 rpm at the start of the experiment and this agitation rate was maintained throughout the experiment. Feed gas flow to the reactor was increased based on the H2 and CO uptake of the culture. Temperature in the bioreactor was maintained at about 38° C. throughout the experiment. Samples of gas feed into the bioreactor and off-gas from the bioreactor and fermentation broth in the bioreactor were taken at intervals, for example feed gas, off-gas and fermentation broth were sampled about daily, once two hours and once four hours respectively. Above samples were analyzed for consumption or production of various gas components, broth acetic acid concentration, broth ethanol concentration and the optical density (cell density) of the culture. The unaroused volume of the reactor was maintained between 3000 to 3250 ml throughout the experiment. Further, the gas flow to the reactor was maintained at required gas flow rates by using a mass flow controller. The feed […] composition was 23% H2, 35% CO, 29% CO2 and 13% N2. In the following reactor runs, vitamins biotin, thiamine and pantothenate were feed to the reactor using a dedicated stream. Steady state conditions were maintained for a period of time greater than 5 times the cell retention time. Cell mass was essentially replaced 5 times before data collection phase started. After data set was collected, vitamin feed rate was adjusted, adjustment phase was repeated, and next data set was collected. Adjustment phase refers to an amount of time necessary for the culture to equilibrate to a change. In this experiment culture was allowed at least a 3-day adjustment phase. A cell recycle system (CRS) was attached to the reactor before the start of the experiment. During the experiment, medium feed rate was 3.0 to 6.0 ml/min, and through the CRS, 0-5 ml/min permeate was drawn out from the reactor. The following tables describe the vitamin feed rates and specific ethanol productivity (SEP). Experiment 5: Fermentation with Clostridium authoethanogenum with Biotin (B7) and Thiamine (B1) feeds held at lower base levels with increasing Pantothenate (B5) Feeds.

For assay [2], the system named is Clostridium ljungdahlii. The assay is described as above. The format is cell-based. The note with it: Experiment 4; vitamin B5 feed held constant below about 30 ug/g of cells produced, vitamin B1 and B7 feeds increased. From the text: A synthesis gas containing CO, CO2 and H2 was continuously introduced into a stirred tank bioreactor containing Clostridium ljungdahlii (Experiments 1-4) or Clostridium authoethanogenum (Experiment 5), along with a liquid medium containing trace metals and salts as described herein. Vitamins were provided using dedicated feed lines. A New Brunswick Bioflow reactor containing the fermentation medium was started with actively growing Clostridium ljungdahlii (Experiments 1-5) or with Clostridium authoethanogenum (Experiment 6). The rate of agitation of the reactor was set to 800 rpm at the start of the experiment and this agitation rate was maintained throughout the experiment. Feed gas flow to the reactor was increased based on the H2 and CO uptake of the culture. Temperature in the bioreactor was maintained at about 38° C. throughout the experiment. Samples of gas feed into the bioreactor and off-gas from the bioreactor and fermentation broth in the bioreactor were taken at intervals, for example feed gas, off-gas and fermentation broth were sampled about daily, once two hours and once four hours respectively. Above samples were analyzed for consumption or production of various gas components, broth acetic acid concentration, broth ethanol concentration and the optical density (cell density) of the culture. […]

For the molecule `CC(C)(CO)[C@@H](O)C(=O)NCCC(=O)O` [Pantothenate (B5), pantothenate], the “SEP (specific ethanol productivity)” value in assay [1] (feeds pantothenate 48.47, biotin 29.54, thiamine 23.10 μg/g cells produced) stood at 8.08 g//day/g cells; in assay [1] (feeds pantothenate 58.08, biotin 26.65, thiamine 20.84 μg/g cells produced) it was 8.24 g//day/g cells; in assay [1] (feeds pantothenate 62.90, biotin 23.04, thiamine 18.01 μg/g cells produced), 8.51 g//day/g cells; in assay [1] (feeds pantothenate 68.78, biotin 25.19, thiamine 19.70 μg/g cells produced), 9.39 g//day/g cells; in assay [1] (feeds pantothenate 70.67, biotin 21.62, thiamine 16.91 μg/g cells produced), 9.70 g//day/g cells; in assay [1] (feeds pantothenate 81.90, biotin 18.79, thiamine 14.69 μg/g cells produced), 9.98 g//day/g cells. The “specific ethanol productivity increase” value in assay [1] (vitamin B5 feed from about 48 to about 82 ug/g of cells produced, vitamin B1 and B7 feeds under 30, further under 20 ug/g of cells produced) is on record as “about 24%”.

In the case of `Cc1ncc(C[n+]2csc(CCO)c2C)c(N)n1` [vitamin B1, thiamine], the “effect of increasing feed rate on specific ethanol productivity” value in assay [2] is recorded as “did not increase specific ethanol productivity”.

On to `O=C(O)CCCC[C@@H]1SC[C@@H]2NC(=O)N[C@@H]21` [vitamin B7, biotin], for which, in assay [2], the “effect of increasing feed rate on specific ethanol productivity” value was “did not increase specific ethanol productivity”.
